In ChEMBL document CHEMBL1201862, “PubChem BioAssay data set” (2004):
Active and inactive are the calls of the source.

Legend:
[1] = biological target: Protein-tyrosine kinase 2-beta (Homo sapiens, UniProt Q14289);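 further: potency of inhibitors of PYK2 kinase phosphorylation of poly-GT substrate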
NADPH oxidase 1 [2] = biological target: T1, NADPH oxidase 1 (Homo sapiens, UniProt Q9Y5S8); experiment: Late-stage luminescence-based cell-based dose response assay to identify inhibitors of NADPH oxidase 1 (NOX1): Synthesized analogs.; format: functional
T1 sequence (Q9Y5S8 whole entry): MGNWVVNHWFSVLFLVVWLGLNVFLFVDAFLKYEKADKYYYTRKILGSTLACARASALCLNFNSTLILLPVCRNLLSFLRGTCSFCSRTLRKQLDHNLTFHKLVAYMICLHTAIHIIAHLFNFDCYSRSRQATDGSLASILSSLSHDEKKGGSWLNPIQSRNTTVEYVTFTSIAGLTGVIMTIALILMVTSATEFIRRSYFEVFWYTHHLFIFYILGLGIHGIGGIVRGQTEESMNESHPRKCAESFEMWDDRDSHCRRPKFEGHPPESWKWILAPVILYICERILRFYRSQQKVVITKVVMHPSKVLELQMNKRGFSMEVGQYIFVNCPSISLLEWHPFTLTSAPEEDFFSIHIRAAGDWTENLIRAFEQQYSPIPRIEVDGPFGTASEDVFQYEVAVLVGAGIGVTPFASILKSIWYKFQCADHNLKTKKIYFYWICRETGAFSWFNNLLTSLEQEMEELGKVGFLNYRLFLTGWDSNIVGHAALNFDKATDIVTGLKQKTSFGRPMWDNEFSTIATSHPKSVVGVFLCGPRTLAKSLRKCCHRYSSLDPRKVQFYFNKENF

NADPH oxidase 1 [3] = biological target: T1, NADPH oxidase 1; experiment: Luminescence-based cell-based dose response assay to identify inhibitors of NADPH oxidase 1 (NOX1).; format: functional
[4] = biological target: Epstein-Barr nuclear antigen 1 (Epstein-Barr virus (strain B95-8) (HHV-4) (Human herpesvirus 4), UniProt P03211); experiment: EBNA-1 inhibitors, dose response, biochemical, fluorescence polarization, 1536-well (AID 2381); parameters: species or system human gammaherpesvirus 4;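 further: fluorescence polarization of a Cy5 DNA probe bound by EBNA-1 protein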
Epstein-Barr nuclear antigen 1, sequence (P03211 whole entry): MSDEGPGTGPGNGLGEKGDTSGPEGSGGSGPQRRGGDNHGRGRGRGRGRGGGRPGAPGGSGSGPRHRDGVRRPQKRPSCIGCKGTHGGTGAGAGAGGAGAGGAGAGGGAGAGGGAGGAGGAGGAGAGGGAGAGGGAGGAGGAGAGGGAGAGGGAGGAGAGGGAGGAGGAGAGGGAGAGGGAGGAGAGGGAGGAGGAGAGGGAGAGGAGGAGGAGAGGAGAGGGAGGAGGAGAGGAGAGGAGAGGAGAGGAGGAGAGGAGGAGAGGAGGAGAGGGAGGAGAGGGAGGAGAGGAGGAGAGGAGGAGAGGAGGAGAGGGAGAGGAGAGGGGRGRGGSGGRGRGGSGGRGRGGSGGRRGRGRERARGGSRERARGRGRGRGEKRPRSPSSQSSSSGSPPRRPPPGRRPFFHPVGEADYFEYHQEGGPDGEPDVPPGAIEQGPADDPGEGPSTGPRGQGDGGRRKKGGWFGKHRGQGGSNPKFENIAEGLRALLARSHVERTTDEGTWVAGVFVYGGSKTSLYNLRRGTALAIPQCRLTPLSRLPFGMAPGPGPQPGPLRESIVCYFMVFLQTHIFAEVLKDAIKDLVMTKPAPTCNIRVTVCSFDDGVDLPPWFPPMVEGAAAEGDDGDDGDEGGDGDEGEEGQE

[5] = biological target: Lytic switch protein BZLF1 (Epstein-Barr virus (strain B95-8) (HHV-4) (Human herpesvirus 4), UniProt P03206); experiment: EBV ZTA inhibitors, dose response, counter-screen for EBNA-1 inhibitor project, biochemical, fluorescence polarization, Epstein-Barr virus, 1536-well (AID 2377); parameters: species or system human gammaherpesvirus 4;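 further: fluorescence polarization of Cy5-labelled ZRE DNA probe bound by purified Zta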
Lytic switch protein BZLF1, sequence (P03206 whole entry): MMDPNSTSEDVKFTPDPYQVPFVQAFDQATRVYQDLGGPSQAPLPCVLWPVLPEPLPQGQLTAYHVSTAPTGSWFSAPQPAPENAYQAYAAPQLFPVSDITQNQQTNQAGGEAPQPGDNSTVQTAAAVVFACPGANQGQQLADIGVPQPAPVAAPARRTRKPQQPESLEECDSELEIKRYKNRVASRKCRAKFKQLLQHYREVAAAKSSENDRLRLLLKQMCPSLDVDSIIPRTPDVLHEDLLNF

[6] = biological target: Glyceraldehyde-3-phosphate dehydrogenase (Homo sapiens, UniProt P04406)
Glyceraldehyde-3-phosphate dehydrogenase, sequence (P04406 whole entry): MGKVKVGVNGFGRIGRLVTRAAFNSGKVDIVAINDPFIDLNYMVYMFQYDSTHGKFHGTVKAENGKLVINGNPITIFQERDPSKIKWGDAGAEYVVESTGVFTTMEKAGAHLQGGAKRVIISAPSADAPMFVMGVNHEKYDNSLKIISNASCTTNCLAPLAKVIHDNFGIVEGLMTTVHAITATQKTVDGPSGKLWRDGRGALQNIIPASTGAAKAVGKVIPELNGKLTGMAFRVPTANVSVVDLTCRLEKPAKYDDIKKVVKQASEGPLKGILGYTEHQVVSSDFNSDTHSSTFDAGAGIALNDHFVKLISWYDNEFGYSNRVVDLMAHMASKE

Bcl-2-related protein A1 [7] = biological target: T2, Bcl-2-related protein A1 (Mus musculus, UniProt Q07440); experiment: Bfl-1 inhibitors blocking BH3 peptide binding, confirmation, biochemical, TR-FRET, mouse Bfl-1 (AID 621);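 further: TR-FRET binding of GST-Bfl-1 to FITC-labelled Bid peptide via terbium antibody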
T2 sequence (Q07440 whole entry): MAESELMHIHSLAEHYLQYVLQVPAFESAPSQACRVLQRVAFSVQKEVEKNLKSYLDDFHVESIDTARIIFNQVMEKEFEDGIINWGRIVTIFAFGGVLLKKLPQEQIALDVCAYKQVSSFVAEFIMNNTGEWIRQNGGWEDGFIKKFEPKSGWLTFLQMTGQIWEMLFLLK

Bcl-2-related protein A1 [8] = biological target: T2, Bcl-2-related protein A1; experiment: Bfl-1 binding inhibitors, SAR follow-up, biochemical, fluorescence polarization (AID 1070)
Mucolipin-3 = Mucolipin-3 (Homo sapiens, UniProt Q8TDD5); experiment: Dose response cell-based high-throughput screening assay for agonists of the transient receptor potential channel ML3 (TRPML3). [Related pubchem assays: 1526, 1424, 1448 ]; format: functional
Mucolipin-3, sequence (Q8TDD5 whole entry): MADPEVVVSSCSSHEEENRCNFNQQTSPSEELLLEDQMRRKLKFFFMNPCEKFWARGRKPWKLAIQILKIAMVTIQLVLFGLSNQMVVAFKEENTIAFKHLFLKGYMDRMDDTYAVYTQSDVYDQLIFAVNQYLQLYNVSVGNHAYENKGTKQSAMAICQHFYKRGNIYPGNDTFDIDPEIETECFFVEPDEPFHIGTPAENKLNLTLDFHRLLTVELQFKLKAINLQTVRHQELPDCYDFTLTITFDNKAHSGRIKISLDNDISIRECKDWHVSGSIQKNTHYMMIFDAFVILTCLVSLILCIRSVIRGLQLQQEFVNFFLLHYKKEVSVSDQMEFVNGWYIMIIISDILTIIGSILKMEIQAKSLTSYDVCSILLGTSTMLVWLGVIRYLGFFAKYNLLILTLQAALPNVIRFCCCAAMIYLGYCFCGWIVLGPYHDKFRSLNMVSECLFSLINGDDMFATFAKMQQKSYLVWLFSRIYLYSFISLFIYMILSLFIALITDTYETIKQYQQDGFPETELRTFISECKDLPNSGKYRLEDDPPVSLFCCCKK

Ion channel NompC = Ion channel NompC (Danio rerio, UniProt Q7T1G6); experiment: Fluorescence counterscreen assay for TRPML3 agonists: dose response cell-based high-throughput screening assay to identify agonists of the transient receptor potential channel N1 (TRPN1). [Related pubchem assays: 1526, 1424, 1448 ]; format: functional
Ion channel NompC, sequence (Q7T1G6 whole entry): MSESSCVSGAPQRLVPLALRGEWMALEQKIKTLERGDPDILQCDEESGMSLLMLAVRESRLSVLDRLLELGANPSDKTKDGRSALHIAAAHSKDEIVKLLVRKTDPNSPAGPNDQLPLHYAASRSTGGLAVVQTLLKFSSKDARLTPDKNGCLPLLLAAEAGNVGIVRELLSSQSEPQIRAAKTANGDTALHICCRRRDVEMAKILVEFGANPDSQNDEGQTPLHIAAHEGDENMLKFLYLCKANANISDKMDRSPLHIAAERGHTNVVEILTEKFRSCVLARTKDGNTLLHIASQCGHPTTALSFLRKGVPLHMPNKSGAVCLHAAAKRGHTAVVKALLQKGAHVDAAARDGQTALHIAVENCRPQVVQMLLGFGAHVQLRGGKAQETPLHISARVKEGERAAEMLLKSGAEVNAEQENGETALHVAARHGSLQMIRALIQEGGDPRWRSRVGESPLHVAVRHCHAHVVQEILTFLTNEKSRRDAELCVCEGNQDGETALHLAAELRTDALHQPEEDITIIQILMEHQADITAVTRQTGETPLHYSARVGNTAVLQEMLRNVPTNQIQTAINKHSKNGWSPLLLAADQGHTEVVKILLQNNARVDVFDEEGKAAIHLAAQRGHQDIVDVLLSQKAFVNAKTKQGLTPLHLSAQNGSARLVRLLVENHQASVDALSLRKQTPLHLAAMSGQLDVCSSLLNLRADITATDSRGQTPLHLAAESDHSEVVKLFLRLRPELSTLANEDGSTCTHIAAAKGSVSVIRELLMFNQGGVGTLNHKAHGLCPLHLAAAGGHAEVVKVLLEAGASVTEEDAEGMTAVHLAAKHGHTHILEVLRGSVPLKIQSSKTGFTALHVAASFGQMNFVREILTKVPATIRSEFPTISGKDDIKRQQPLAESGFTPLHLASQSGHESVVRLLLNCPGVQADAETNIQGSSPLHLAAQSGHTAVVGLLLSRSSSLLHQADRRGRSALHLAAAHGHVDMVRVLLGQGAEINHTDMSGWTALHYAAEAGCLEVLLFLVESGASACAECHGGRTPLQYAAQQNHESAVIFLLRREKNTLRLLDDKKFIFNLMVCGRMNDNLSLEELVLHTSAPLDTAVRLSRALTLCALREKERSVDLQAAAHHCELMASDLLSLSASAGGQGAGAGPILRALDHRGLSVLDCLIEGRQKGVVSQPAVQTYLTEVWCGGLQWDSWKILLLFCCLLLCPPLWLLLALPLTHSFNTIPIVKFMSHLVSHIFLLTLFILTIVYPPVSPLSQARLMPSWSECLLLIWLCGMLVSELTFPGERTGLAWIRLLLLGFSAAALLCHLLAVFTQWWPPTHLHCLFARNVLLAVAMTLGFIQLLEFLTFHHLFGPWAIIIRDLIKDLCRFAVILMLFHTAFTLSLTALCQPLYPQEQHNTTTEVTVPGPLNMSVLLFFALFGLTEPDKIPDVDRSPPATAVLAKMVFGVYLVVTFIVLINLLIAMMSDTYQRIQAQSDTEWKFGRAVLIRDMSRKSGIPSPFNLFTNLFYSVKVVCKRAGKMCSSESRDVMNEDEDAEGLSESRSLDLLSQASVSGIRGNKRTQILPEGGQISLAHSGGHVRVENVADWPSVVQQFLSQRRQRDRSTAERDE

[9] = biological target: T3, Polyadenylate-binding protein 1 (Homo sapiens, UniProt P11940); experiment: PABP1 MLLE–PAM2 interaction inhibitors, dose response, miRNA deadenylation inhibitor project, biochemical, fluorescence polarization, Cy5-PAM2 peptide, secondary (AID 602260); format: functional; settings: read-out: IC50_Mean
T3 sequence (P11940 whole entry): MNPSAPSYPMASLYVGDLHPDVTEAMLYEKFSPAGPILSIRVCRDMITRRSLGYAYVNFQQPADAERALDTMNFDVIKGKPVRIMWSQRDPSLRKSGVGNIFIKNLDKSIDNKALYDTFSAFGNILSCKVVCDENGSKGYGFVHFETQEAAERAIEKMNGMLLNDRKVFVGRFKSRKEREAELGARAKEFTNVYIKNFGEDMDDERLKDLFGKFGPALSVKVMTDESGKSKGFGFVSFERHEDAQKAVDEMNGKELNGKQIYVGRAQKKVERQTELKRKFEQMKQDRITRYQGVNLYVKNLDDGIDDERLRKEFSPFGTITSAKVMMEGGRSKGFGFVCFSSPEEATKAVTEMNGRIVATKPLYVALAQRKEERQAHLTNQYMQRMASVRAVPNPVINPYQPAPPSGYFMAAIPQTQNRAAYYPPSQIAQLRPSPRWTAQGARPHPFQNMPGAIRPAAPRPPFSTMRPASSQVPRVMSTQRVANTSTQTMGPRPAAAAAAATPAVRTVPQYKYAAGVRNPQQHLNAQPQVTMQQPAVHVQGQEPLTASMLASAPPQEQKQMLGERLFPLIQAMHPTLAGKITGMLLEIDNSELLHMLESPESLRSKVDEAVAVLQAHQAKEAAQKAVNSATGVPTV

[10] = biological target: T3, Polyadenylate-binding protein 1; experiment: PABP1 MLLE–PAM2 binding inhibitor potency, dose response, biochemical, fluorescence polarization, FITC-PAM2 peptide (AID 602259); format: functional; settings: read-out: IC50_Mean
[11] = A High Throughput Confirmatory Assay used to Identify Novel Compounds that Inhibit Mycobacterium Tuberculosis in the absence of Glycerol.; format: functional

Protein-tyrosine kinase 2-beta, sequence (Q14289 whole entry): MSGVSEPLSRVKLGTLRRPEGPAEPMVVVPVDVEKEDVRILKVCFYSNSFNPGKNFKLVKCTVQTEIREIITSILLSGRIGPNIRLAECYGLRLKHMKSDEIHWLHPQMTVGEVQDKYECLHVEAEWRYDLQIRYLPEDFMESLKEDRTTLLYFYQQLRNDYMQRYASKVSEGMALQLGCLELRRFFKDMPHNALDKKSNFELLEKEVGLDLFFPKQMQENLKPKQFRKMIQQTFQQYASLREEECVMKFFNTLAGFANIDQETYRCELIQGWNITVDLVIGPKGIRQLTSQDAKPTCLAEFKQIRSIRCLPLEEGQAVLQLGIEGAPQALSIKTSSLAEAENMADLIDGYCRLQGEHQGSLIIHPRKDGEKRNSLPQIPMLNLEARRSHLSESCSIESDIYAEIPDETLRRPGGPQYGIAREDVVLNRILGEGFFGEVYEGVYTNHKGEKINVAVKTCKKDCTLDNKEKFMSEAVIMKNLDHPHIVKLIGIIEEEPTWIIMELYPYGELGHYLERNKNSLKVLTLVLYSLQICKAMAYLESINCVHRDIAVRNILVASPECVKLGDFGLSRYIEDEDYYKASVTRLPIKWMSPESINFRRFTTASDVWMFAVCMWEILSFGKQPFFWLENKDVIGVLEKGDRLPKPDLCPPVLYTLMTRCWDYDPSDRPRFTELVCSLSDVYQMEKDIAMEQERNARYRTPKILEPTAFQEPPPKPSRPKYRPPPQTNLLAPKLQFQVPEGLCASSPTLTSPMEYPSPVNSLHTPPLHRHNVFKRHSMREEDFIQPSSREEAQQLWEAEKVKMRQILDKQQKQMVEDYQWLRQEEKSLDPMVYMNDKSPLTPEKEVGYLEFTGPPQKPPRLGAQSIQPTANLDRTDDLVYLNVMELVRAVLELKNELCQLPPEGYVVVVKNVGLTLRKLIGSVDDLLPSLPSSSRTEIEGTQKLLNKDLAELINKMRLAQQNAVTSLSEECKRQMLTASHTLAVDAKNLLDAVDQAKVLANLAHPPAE

## N#Cc1cnn2c1nc(N1CCOCC1)c1ccccc12
[1]
  IC50: > 69.5 µM (not active)

## O=S1(=O)c2ccccc2Nc2ccccc21
NADPH oxidase 1 [2]
  IC50: > 50 µM (not active)
NADPH oxidase 1 [3]
  IC50: 6.6 µM (active)

## Cc1ccccc1OCCn1cc(/C=C(\C#N)C(=O)NCc2ccco2)c2ccccc21
[4]
  IC50: 39.9 µM (not active)
[5]
  IC50: > 111 µM (not active)

## O=C1C(Cl)=C(N2CCOCC2)C(=O)N1c1ccc(Cl)nc1
[6]
  IC50: > 100 µM (not active)
Bcl-2-related protein A1 [7]
  IC50: 15.1 µM (active)
Bcl-2-related protein A1 [8]
  IC50: 12.6 µM (active)

## O=C1C(Cl)=C(N2CCN(Cc3ccccc3)CC2)C(=O)N1Cc1ccccc1
Mucolipin-3
  EC50: 5.29 µM (active)
Ion channel NompC
  EC50: > 29.9 µM (not active)
[9]
  IC50: > 66 µM (inactive)
[10]
  IC50: > 66 µM (inactive)

## CCc1nc2ccccc2c(C(=O)Nc2cc(C)ccc2C)c1C
[11]
  IC50: > 100 µM (active)
